Patent US20130116263A1, “PAK INHIBITORS FOR THE TREATMENT OF CELL PROLIFERATIVE DISORDERS” (AFRAXIS, INC., priority 2011, published 2013)

How the values were obtained:
Assay type in all cases: biochemical
PAK2 (PAK65) = PAK2 (PAK65) (Homo sapiens, UniProt Q13177); test: In vitro PAK inhibition assay (Z'-LYTE, SelectScreen), PAK2; conditions: read-out: PAK2 IC50
Experimental: (§1) Compounds are screened in 1% DMSO (final) in the well. For 10 point titrations, 3-fold serial dilutions are conducted. All Peptide/Kinase Mixtures are diluted to a 2× working concentration in the appropriate Kinase Buffer
The 2×PAK2 (PAK65)/Ser/Thr 20 mixture is prepared in 50 mM HEPES pH 7.5, 0.01% BRIJ-35, 10 mM MgCl2, 1 mM EGTA. The final 10 μL Kinase Reaction consists of 0.29-6 ng PAK2 (PAK65) and 2 μM Ser/Thr 20 in 50 mM HEPES pH 7.5, 0.01% BRIJ-35, 10 mM MgCl2, 1 mM EGTA.
(§2) 1. Add the following solutions to a well in a 384-well plate: • 2.5 μL of 4× Test Compound OR (100 nL 100× Test Compound plus 2.4 μL kinase buffer) • 5 μL of 2× Peptide/Kinase (PAK) Mixture • 2.5 μL of 4×ATP Solution
(§3) 3. Incubate the PAK Kinase Reaction at room temperature for 60-minutes
(§4) 4. Add 5 μL of Development Reagent Solution to each well
(§5) 6. Incubate the Development Reaction for 60-minutes
(§6) 7. Determine the fluorescence using a fluorescence plate reader
(§7) SelectScreen® Kinase Profiling Service uses XLfit from IDBS.
(§8) The representative IC50 value with a known inhibitor for each kinase was determined at the ATP bin nearest to the ATP Km app.

PAK3 = PAK3 (Homo sapiens, UniProt O75914); test: In vitro PAK inhibition assay (Z'-LYTE, SelectScreen), PAK3; conditions: read-out: PAK3 IC50
Chain of PAK3 (O75914 1-544 isoform O75914-2): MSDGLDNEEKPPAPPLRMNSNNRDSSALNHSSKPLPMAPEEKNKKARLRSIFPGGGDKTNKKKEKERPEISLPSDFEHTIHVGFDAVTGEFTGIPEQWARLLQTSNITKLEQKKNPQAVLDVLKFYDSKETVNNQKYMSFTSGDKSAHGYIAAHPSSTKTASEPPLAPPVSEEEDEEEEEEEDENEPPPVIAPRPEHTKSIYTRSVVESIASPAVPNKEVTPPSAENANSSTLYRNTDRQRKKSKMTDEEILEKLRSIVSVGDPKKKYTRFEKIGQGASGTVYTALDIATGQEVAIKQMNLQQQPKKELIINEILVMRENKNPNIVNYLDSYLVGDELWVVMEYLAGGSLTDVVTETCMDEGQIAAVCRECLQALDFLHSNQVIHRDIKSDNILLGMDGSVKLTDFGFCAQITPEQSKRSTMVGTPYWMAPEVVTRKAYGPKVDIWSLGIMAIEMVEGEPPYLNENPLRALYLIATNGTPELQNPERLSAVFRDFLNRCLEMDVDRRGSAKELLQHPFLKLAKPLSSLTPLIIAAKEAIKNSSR
Experimental: as §1
The 2×PAK3/Ser/Thr 20 mixture is prepared in 50 mM HEPES pH 7.5, 0.01% BRIJ-35, 10 mM MgCl2, 1 mM EGTA.
as §2, §3, §4, §5, §6, §7, §8

PAK1 = PAK1 (Homo sapiens, UniProt Q13153); test: In vitro PAK inhibition assay (Z'-LYTE, SelectScreen), PAK1; conditions: read-out: PAK1 IC50
Chain of PAK1 (Q13153 whole entry): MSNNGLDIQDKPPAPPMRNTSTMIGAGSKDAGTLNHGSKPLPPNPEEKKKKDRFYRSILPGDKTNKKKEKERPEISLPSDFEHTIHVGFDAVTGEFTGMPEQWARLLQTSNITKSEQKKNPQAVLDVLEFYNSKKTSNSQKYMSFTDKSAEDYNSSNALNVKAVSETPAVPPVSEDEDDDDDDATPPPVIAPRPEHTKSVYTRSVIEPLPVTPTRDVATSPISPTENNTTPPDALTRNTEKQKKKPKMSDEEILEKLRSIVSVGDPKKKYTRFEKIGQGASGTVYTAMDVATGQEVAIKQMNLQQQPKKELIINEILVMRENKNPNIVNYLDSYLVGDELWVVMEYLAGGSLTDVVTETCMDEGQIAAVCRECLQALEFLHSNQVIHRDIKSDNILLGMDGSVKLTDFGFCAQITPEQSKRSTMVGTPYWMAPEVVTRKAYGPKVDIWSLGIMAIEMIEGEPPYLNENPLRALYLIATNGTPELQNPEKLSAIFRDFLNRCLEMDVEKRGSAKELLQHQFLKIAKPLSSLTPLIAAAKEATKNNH
Experimental: as §1
The 2×PAK1/Ser/Thr 19 mixture is prepared in 50 mM HEPES pH 7.5, 0.01% BRIJ-35, 10 mM MgCl2, 1 mM EGTA.
as §2, §3, §4, §5, §6, §7, §8

PAK4 = PAK4 (Homo sapiens, UniProt O96013); test: In vitro PAK inhibition assay (Z'-LYTE, SelectScreen), PAK4
Chain of PAK4 (O96013 whole entry): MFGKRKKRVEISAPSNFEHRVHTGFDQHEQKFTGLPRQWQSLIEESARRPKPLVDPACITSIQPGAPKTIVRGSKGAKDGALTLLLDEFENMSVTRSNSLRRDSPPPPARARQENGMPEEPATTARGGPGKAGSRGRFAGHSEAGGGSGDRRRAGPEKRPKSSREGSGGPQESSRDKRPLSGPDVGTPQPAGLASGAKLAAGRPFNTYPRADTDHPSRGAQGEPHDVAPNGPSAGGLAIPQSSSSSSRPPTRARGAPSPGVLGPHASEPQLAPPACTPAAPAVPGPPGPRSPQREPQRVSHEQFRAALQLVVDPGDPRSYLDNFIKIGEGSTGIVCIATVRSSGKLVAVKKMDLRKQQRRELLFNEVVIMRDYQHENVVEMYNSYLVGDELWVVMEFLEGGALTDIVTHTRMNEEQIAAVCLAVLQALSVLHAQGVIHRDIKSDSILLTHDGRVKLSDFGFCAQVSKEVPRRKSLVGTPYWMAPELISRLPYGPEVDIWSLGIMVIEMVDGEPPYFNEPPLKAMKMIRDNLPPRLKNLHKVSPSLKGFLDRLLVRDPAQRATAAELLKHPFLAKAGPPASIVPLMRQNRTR
Experimental: as §1
The 2×PAK-4/Ser/Thr 20 mixture is prepared in 50 mM HEPES pH 7.5, 0.01% BRIJ-35, 10 mM MgCl2, 1 mM EGTA. The final 10 μL Kinase Reaction consists of 0.1-0.75 ng PAK-4 and 2 μM Ser/Thr 20 in 50 mM HEPES pH 7.5, 0.01% BRIJ-35, 10 mM MgCl2, 1 mM EGTA. After the 1 hour Kinase Reaction incubation, 5 μL of a 1:256 dilution of Development Reagent A is added.
as §2, §3, §4, §5, §6
SelectScreen® Kinase Profiling Service uses XLfit from IDBS. The dose response curve is curve fit to model number 205 (sigmoidal dose-response model).
The table below provides specifications and data around each kinase. The representative IC50 value with a known inhibitor for each kinase was determined at the ATP bin nearest to the ATP Km app.

Chain of PAK2 (PAK65) (Q13177 whole entry): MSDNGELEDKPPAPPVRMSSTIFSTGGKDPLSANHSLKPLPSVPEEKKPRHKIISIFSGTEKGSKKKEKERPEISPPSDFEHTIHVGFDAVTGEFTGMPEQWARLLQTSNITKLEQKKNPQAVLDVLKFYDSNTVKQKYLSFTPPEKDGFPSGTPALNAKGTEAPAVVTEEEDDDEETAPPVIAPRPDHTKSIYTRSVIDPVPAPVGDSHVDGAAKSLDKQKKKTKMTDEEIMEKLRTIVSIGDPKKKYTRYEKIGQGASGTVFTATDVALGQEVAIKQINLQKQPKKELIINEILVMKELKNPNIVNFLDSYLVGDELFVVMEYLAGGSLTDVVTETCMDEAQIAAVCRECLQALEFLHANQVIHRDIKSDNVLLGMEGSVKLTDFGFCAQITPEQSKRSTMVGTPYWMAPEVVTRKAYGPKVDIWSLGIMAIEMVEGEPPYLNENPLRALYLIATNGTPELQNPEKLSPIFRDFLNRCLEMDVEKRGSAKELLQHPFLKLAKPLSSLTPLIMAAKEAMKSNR

Row | Compound | IC50 (PAK2 (PAK65)) [nM] | IC50 (PAK3) [nM] | IC50 (PAK1) [nM] | IC50 (PAK4) [nM]
1 | Cc1cnc(-c2ccc(-c3cc4cnc(NC5CCOCC5)nc4n(Cc4ccccc4C(F)(F)F)c3=O)c(Cl)c2)s1 [Example 26] | 50 to 500 | 50 to 500 | 50 to 500 | > 5000
2 | CCn1c(=O)c(-c2ccc(-c3cccnc3F)cc2Cl)cc2cnc(NC3CCOC3)nc21 (centres unmarked) [Example 39] | 50 to 500 | 50 to 500 | 50 to 500 | > 5000
3 | Cc1nccnc1-c1ccc(-c2cc3cnc(NC4CCOCC4)nc3n(Cc3ccccc3C(F)(F)F)c2=O)c(Cl)c1 [Example 21] | < 50 | < 50 | < 50 | > 5000
4 | CCn1c(=O)c(-c2ccc(-c3cncc(C)n3)cc2Cl)cc2cnc(NCCCOCCCN(C)C)nc21 [Example 130] | 50 to 500 | 50 to 500 | 50 to 500 | > 5000
5 | CCn1c(=O)c(-c2ccc(-c3cccnc3)cc2Cl)cc2cnc(N[C@@H]3CCOC3)nc21 [Example 51] | 50 to 500 | 500 to 5000 | 50 to 500 | > 5000
6 | CCn1c(=O)c(-c2ccc(-c3cccnc3F)cc2Cl)cc2cnc(N[C@@H]3CCOC3)nc21 [Example 40] | 50 to 500 | 50 to 500 | < 50 | > 5000
7 | CCn1c(=O)c(-c2ccc(-c3nccnc3C)cc2C)cc2cnc(NC3CCOCC3)nc21 [Example 1, 8-ethyl-6-(2-methyl-4-(3-methylpyrazin-2-yl)phenyl)-2-(tetrahydro-2H-pyran-4-ylamino)pyrido[2,3-d]pyrimidin-7(8H)-one] | 50 to 500 | 50 to 500 | 50 to 500 | > 5000
8 | CCn1c(=O)c(-c2ccc(-c3cccnc3O)cc2Cl)cc2cnc(NC3CCOCC3)nc21 [Example 48] | 50 to 500 | 50 to 500 | 50 to 500 | > 5000
9 | Cc1cncc(-c2ccc(-c3cc4cnc(N[C@@H]5CCOC5)nc4n(CCN4CCCC4)c3=O)c(Cl)c2)n1 [Example 104] | 50 to 500 | 500 to 5000 | 50 to 500 | > 5000
10 | CCn1c(=O)c(-c2ccc(-c3nccnc3C)cc2Cl)cc2cnc(NC3C[C@@H](C)O[C@@H](C)C3)nc21 (some centres unmarked) [Example 38] | < 50 | 50 to 500 | < 50 | > 5000
11 | CCn1c(=O)c(-c2ccc(-c3noc(C)n3)cc2Cl)cc2cnc(NCCC3CCNCC3)nc21 [Example 137] | < 50 | 50 to 500 | 50 to 500 | > 5000
12 | CCNc1ncc2cc(-c3ccc(-c4cncc(C)n4)cc3Cl)c(=O)n([C@H]3CC[C@H](N)CC3)c2n1 [Example 117] | < 50 | < 50 | < 50 | 500 to 5000
13 | CCn1c(=O)c(-c2ccc(-c3nccnc3C)cc2Cl)cc2cnc(NC3CC[S+]([O-])CC3)nc21 (centres unmarked) [Example 74] | 50 to 500 | 500 to 5000 | 50 to 500 | > 5000
14 | COCCCn1c(=O)c(-c2ccc(-c3cncc(C)n3)cc2Cl)cc2cnc(N[C@H]3CCOC3)nc21 [Example 65] | < 50 | 50 to 500 | < 50 | > 5000
15 | CCn1c(=O)c(-c2ccc(-c3noc(C)n3)cc2Cl)cc2cnc(N[C@H]3CC[C@H](N)CC3)nc21 [Example 94] | 50 to 500 | 50 to 500 | 50 to 500 | > 5000
16 | CCn1c(=O)c(-c2ccc(-c3ccc(C)nc3)cc2Cl)cc2cnc(N[C@@H]3CCOC3)nc21 [Example 56] | 50 to 500 | > 5000 | 500 to 5000 | > 5000
17 | CCn1c(=O)c(-c2ccc(-c3cncc(C)n3)cc2Cl)cc2cnc(NCCOCCN(C)C)nc21 [Example 127, 6-(2-chloro-4-(6-methylpyrazin-2-yl)phenyl)-2-((2-(2-(dimethylamino)ethoxy)ethyl)amino)-8-ethylpyrido[2,3-d]pyrimidin-7(8H)-one] | 50 to 500 | 50 to 500 | 50 to 500 | > 5000
